In US6979666B2, “Dithianon-based fungicidal mixtures” (BASF Aktiengesellschaft, priority 2002, dated 2005):

System: Alternaria solani
Experiment: Activity against early blight of tomato caused by Alternaria solani (protective spray on potted tomato plants)
Format: in vivo
Conditions: tomato leaves, rated after 5 days, untreated control 72% infection
Experimental: The active compounds, separately or together, were prepared as a stock solution with 0.25% by weight of active compound in acetone or DMSO. 1% by weight of the emulsifier Uniperol® EL (wetting agent having emulsifying and dispersing action based on ethoxylated alkylphenols) was added to this solution, and the solution was diluted with water to the desired concentration.
Use example: Activity against early blight of tomato caused by Alternaria solani
Leaves of potted plants of the cultivar “Groβe Fleischtomate St. Pierre” were sprayed to runoff point with an aqueous suspension having the concentration of active compound stated below. The next day, the leaves were infected with an aqueous spore suspension of Alternaria solani in a 2% strength biomalt solution having a density of 0.17×10^6 spores/ml. The plants were then placed in a water-vapor-saturated chamber at 20–22° C. After 5 days, the early blight on the untreated, but infected control plants had developed to such an extent that the infection could be determined visually in %.
Evaluation is carried out by determining the infected leaf areas in percent. These percentages are converted into efficacies.
The efficacy (E) is calculated as follows using Abbot's formula: E=(1−α/β)·100 • α corresponds to the fungal infection of the treated plants in % and • β corresponds to the fungal infection of the untreated (control) plants in %
An efficacy of 0 means that the infection level of the treated plants corresponds to that of the untreated control plants; an efficacy of 100 means that the treated plants were not infected.
The expected efficacies of the active compound mixtures are determined using Colby's formula [S.R. Colby, Weeds 15, 20–22 (1967)] and compared with the observed efficacies.
Colby's Formula: E=x+y−x·y/100 • E expected efficacy, expressed in percent of the untreated control, when using the mixture of the active compounds A and B at the concentrations a and b • x efficacy, expressed in % of the untreated control, when using active compound A at a concentration of a • y efficacy, expressed in % of the untreated control, when using active compound B at a concentration of b

[1] = 8 ppm active compound in the spray liquid
[2] = 16 ppm active compound in the spray liquid
[3] = 31 ppm active compound in the spray liquid
[4] = 63 ppm active compound in the spray liquid

Structure (SMILES) | Efficacy in % of the untreated control [1] | Efficacy in % of the untreated control [2] | Efficacy in % of the untreated control [3] | Efficacy in % of the untreated control [4]
N#Cc1sc2c(=O)c3ccccc3c(=O)c=2sc1C#N [I, dithianon] | 44% | 65% | 79% | 86%
Cc1cc(C)nc(Nc2ccccc2)n1 [II-1, pyrimethanil] | 0% | 0% | 0% | 0%
Cc1cc(C2CC2)nc(Nc2ccccc2)n1 [II-2, cyprodinil] | 44% | 72% | – | 86%
